Our source for the relative viability values is the supplement of paper PMC10307832.

Common to all, as to assay: relative viability (nuclei count vs DMSO), 5 days (fraction); higher = more cells survive
Compound in experiment [1]: C1COCCN1C2=NC(=NC3=C2OC4=C3C=CC=N4)C5=CC(=CC=C5)NC(=O)C6=CN=C(C=C6)N + CC(=O)Nc1cccc(-n2c(=O)n(C3CC3)c(=O)c3c(Nc4ccc(I)cc4F)n(C)c(=O)c(C)c32)c1 [Trametinib] (partner 0.02 µM)
Put shortly: (§1)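 Lung cancer cell lines were pin-tool dosed in 1536-well plates on the day after seeding, with either a lone drug or a fixed anchor-drug dose plus five library-drug doses (not always all listed) in √10 steps. Nuclei were counted on 4× images after 5 days. Relative viability is the ratio of treated-well to vehicle-well nuclei counts, with each value a median of duplicate plates.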

Compound in experiment [2]: C1COCCN1C2=NC(=NC3=C2OC4=C3C=CC=N4)C5=CC(=CC=C5)NC(=O)C6=CN=C(C=C6)N + O=C(CCCCCCC(=O)Nc1ccccc1)NO [Vorinostat] (partner 1 µM)
Put shortly:
as §1

Compound in the experiment “Entinostat + Linsitinib”: Nc1ccccc1NC(=O)c1ccc(CNC(=O)OCc2cccnc2)cc1 [Entinostat] + C[C@]1(O)C[C@@H](c2nc(-c3ccc4ccc(-c5ccccc5)nc4c3)c3c(N)nccn32)C1 [Linsitinib] (partner 1 µM)
Put shortly:
as §1

Compound in experiment [3]: C1COCCN1C2=NC(=NC3=C2OC4=C3C=CC=N4)C5=CC(=CC=C5)NC(=O)C6=CN=C(C=C6)N + COc1cc2c(Oc3ccc(NC(=O)C4(C(=O)Nc5ccc(F)cc5)CC4)cc3F)ccnc2cc1OCCCN1CCOCC1 [Foretinib] (partner 0.25 µM)
An outline of the steps: as §1

In the case of UMC-11, the relative viability was 0.733 in experiment [1] (first compound 0.02 µM); 0.809 in experiment [1] (first compound 0.06325 µM); 0.572 in experiment [1] (first compound 0.2 µM); 0.706 in experiment [1] (first compound 0.6325 µM); 0.614 in experiment [1] (first compound 2 µM); 0.415 in experiment [2] (first compound 0.02 µM). For the same cell line, the relative viability was found to be 0.382 in experiment [2] (first compound 0.06325 µM); 0.352 in experiment [2] (first compound 0.2 µM); 0.369 in experiment [2] (first compound 0.6325 µM); 0.264 in experiment [2] (first compound 2 µM); 1.11 with Entinostat + Linsitinib (first compound 0.02 µM); 1 with Entinostat + Linsitinib (first compound 0.06325 µM). Moreover, the relative viability stood at 0.715 with Entinostat + Linsitinib (first compound 0.2 µM); 0.214 with Entinostat + Linsitinib (first compound 0.6325 µM); 0.142 in the experiment with Entinostat + Linsitinib (first compound 2 µM); 1.05 in experiment [3] (first compound 0.02 µM); 1.08 in experiment [3] (first compound 0.06325 µM); 1.21 in experiment [3] (first compound 0.2 µM). Further, the relative viability in experiment [3] (first compound 0.6325 µM) is 1.19; in experiment [3] (first compound 2 µM) it was 0.871.
